This data set can be described thus: photoluminescence quantum yield (fraction); solvent given as SMILES.

Compound `CCCCC(CC)CN1C(=O)c2cc(Oc3ccc(OC)cc3)c3c4c(Oc5ccc(C(C)(C)C)cc5)cc5c6c(cc(Oc7ccc(C(C)(C)C)cc7)c(c7c(Oc8ccc(OC)cc8)cc(c2c37)C1=O)c64)C(=O)N(c1c(C(C)C)cccc1C(C)C)C5=O` (stereo unspecified) showed a photoluminescence quantum yield (in Cc1ccccc1) of 0.58.
The compound `C1=Cc2ccccc2Cc2ccccc21` displayed a photoluminescence quantum yield (in CC#N) of 0.82 and a photoluminescence quantum yield (in CO) of 0.016.
With `Nc1ccc2[nH]ncc2c1`, the photoluminescence quantum yield reads like this: (in C1CCCCC1) 0.14; (in CC#N) 0.18; (in CO) 0.37; (in O) 0.57.
Turning to `CCCCN1C(=O)c2ccc3c4ccc5c6c(ccc(c7ccc(c2c37)C1=O)c64)C(=O)N(CCCC)C5=O`, the photoluminescence quantum yield (in ClC(Cl)Cl) was 0.98.
The compound `CN1/C(=C/C=C/C2=[N+](CCCCCC(=O)O)c3ccc(S(=O)(=O)[O-])cc3C2(C)C)C(C)(C)c2cc(S(=O)(=O)[O-])ccc21` registered a photoluminescence quantum yield (in O) of 0.04.
As to `CC1=CC(C)=[N+]2C1=Cc1c(C)cc(C)n1[B-]2(F)F`, the photoluminescence quantum yield is, setting by setting: (in CCCCCC) 0.96; (in CO) 0.99; (in ClCCl) 0.92.
`CC[B-]1(CC)c2cccc3cc4ccccc4c(c23)-c2cccc(C)[n+]21` had a photoluminescence quantum yield (in ClCCl) of 0.202.
Turning to `Nc1ccc2c(c1)-c1ccccc1C2=O`, the photoluminescence quantum yield worked out at 0.006 (in C1CCCCC1), 0.043 (in CC#N), 0.0033 (in CCO) and 0.13 (in c1ccccc1).
`Cc1ccc(-c2ccc(/C=C/c3ccc(Br)n3C)cn2)nc1` registered a photoluminescence quantum yield (in CC#N) of 0.13.
In the case of `CC(C)=CCN1C(=O)c2cccc3c2c(cc2oc(C)nc23)C1=O`, the photoluminescence quantum yield (in CCO) worked out at 0.011.
As for `CCCC1(CCC)c2cc(-c3ccc(C(C)(C)C)cc3)ccc2-c2ccc(-c3ccc4c(c3)C(CCC)(CCC)c3cc(-c5ccc6c(c5)C(CCC)(CCC)c5cc(-c7ccc(C(C)(C)C)cc7)ccc5-6)ccc3-4)cc21`, where the note is “in C1CCCCC1”, the photoluminescence quantum yield came out at 0.9.
Consider `COc1c(/C=N/Nc2ccc(C#N)cc2)ccc2ccccc12`, for which, under “in CO”, the photoluminescence quantum yield stood at 0.16.
Under “in C1CCOC1”, `CC(C)(C)c1ccc(C2=C(c3ccc(N4c5ccccc5C(C)(C)c5ccccc54)cc3)S(=O)(=O)c3c2sc(-c2ccc(N4c5ccccc5C(C)(C)c5ccccc54)cc2)c3-c2ccc(C(C)(C)C)cc2)cc1` came in with a photoluminescence quantum yield of 0.021.
Regarding `[C-]#[N+]c1ccc(-c2ccc(N)cc2)cc1`, the photoluminescence quantum yield runs as follows: (in C1CCCCC1) 0.66; (in C1CCOC1) 0.78; (in C1COCCO1) 0.79; (in CC#N) 0.65; (in CC(C)=O) 0.52; (in CCCCCC) 0.76. The photoluminescence quantum yield is, setting by setting: (in CCOC(C)=O) 0.67; (in CN(C)C=O) 0.78; (in CO) 0.1; (in CS(C)=O) 0.77; (in Cc1ccccc1) 0.68; (in ClC(Cl)Cl) 0.2. Also, the photoluminescence quantum yield turned out to be 0.75 (in ClCCl), 0.0088 (in O) and 0.06 (in c1ccncc1).
`Cc1cc(-c2ccc(C(C)(C)C)cc2)c2nsnc2c1-c1ccc(N(c2ccccc2)c2ccccc2)cc1` registered a photoluminescence quantum yield (in ClCCl) of 0.18.
`C[Si](C)(C)c1ccc(C#N)c2ccccc12` had a photoluminescence quantum yield (in C1CCCCC1) of 0.66.
Turning to `CC1(C)c2ccccc2N(c2ccc(S(=O)(=O)c3ccc(N4c5ccccc5C(C)(C)c5ccccc54)cc3)cc2)c2ccccc21`, the photoluminescence quantum yield is, setting by setting: (in C1COCCO1) 0.8; (in CC(C)=O) 0.59; (in Cc1ccccc1) 0.8; (in ClC(Cl)Cl) 0.8; (in c1cc(-n2c3ccccc3c3ccccc32)cc(-n2c3ccccc3c3ccccc32)c1) 0.8.
As for `CCCCCCc1ccc(-n2c3[n+](c4c5ccccc5c5ccccc5c42)[B-](C)(C)c2cc(-n4c5ccccc5c5ccccc54)ccc2-3)cc1`, the photoluminescence quantum yield stood at 0.82 (in C1CCOC1), 0.71 (in CC#N), 0.76 (in Cc1ccccc1) and 0.83 (in ClCCl).
For the compound `CCN(CC)c1ccc2cc(/C=C(\C#N)c3nc4ccccc4o3)c(=O)oc2c1`, the photoluminescence quantum yield is, setting by setting: (in C1COCCO1) 0.0097; (in CC#N) 0.0071; (in CCO) 0.0158; (in CCOC(C)=O) 0.0068; (in CN(C)C=O) 0.0307; (in CO) 0.0157. In addition, the photoluminescence quantum yield was determined as 0.0263 (in CS(C)=O), 0.0061 (in Cc1ccccc1) and 0.0066 (in ClCCl).
Consider `CCCCCCCN1C(=CC2=C([O-])C(=Cc3sc4ccccc4[n+]3CCCCCCC)C2=C(C#N)C#N)Sc2ccccc21`, for which the photoluminescence quantum yield by setting is: (in C1COCCO1) 0.09; (in CCO) 0.14; (in CN(C)C=O) 0.14; (in ClC(Cl)Cl) 0.13.
The compound `c1cc2c3c(cccc3c1)C(N1CCOCCOCCN(C3=Nc4cccc5cccc3c45)CCOCC1)=N2` returned a photoluminescence quantum yield (in CC#N) of 0.0051.
In turn, `N#Cc1nc(N(Cc2ccccc2I)Cc2ccccc2I)c(C#N)nc1N(Cc1ccccc1I)Cc1ccccc1I` displayed a photoluminescence quantum yield (in ClC(Cl)Cl) of 0.61.
As for `CCN(CC)c1ccc(-n2cccc2)cc1`, the photoluminescence quantum yield came out at 0.13 (in CC#N) and 0.11 (in CCCCCC).
For `O=c1c2cc(C#Cc3ccc(Cl)cc3)ccc2nc2ccc(C#Cc3ccc(Cl)cc3)cn12`, the photoluminescence quantum yield (in ClCCl) was determined as 0.33.
For `C1CCN2CCCn3c2c(c2c3=NCCN=2)C1`, the photoluminescence quantum yield was found to be 0.36 (in CCCCCC) and 0.2 (in CS(C)=O).
`CC(C)(C)c1ccc(C#Cc2c(C#Cc3ccc(C(C)(C)C)cc3)c3cccc4c(C#Cc5ccc(C(C)(C)C)cc5)c(C#Cc5ccc(C(C)(C)C)cc5)c5cccc2c5c34)cc1` came in with a photoluminescence quantum yield (in ClCCl) of 0.7.
In the case of `CCCCCCCCC1(CCCCCCCC)c2cc(C=O)ccc2-c2ccc(/C=C/c3ccc(N(c4ccccc4)c4ccccc4)cc3)cc21`, the photoluminescence quantum yield runs as follows: (in C1CCOC1) 0.94; (in C1COCCO1) 0.67; (in CC#N) 0.24; (in CC(C)=O) 0.33; (in CCCCCC) 0.6; (in CCOC(C)=O) 0.6. For the same compound, the photoluminescence quantum yield is, setting by setting: (in CN(C)C=O) 0.12; (in CS(C)=O) 0.2; (in Cc1ccccc1) 0.58; (in ClC(Cl)Cl) 0.53; (in ClCCl) 0.7.
As to `Cc1cn2cc(-c3ccc(-c4ccccc4)cc3)[n-][n+]2c1`, the photoluminescence quantum yield (in ClCCl) came to 0.27.

The record behind these values is the Deep4Chem optical property database.
